Experimental data: ChEMBL document CHEMBL1130971, “Endothelin antagonists: evaluation of 2,1,3-benzothiadiazole as a methylendioxyphenyl bioisoster” (Bioorg Med Chem Lett, 1998)

Key:
Endothelin-1 receptor = target: T1, Endothelin-1 receptor (Rattus norvegicus, UniProt P26684); assay: Inhibition of [125I]ET1 binding to rat aorta membrane Endothelin A receptor
T1 sequence (P26684 whole entry): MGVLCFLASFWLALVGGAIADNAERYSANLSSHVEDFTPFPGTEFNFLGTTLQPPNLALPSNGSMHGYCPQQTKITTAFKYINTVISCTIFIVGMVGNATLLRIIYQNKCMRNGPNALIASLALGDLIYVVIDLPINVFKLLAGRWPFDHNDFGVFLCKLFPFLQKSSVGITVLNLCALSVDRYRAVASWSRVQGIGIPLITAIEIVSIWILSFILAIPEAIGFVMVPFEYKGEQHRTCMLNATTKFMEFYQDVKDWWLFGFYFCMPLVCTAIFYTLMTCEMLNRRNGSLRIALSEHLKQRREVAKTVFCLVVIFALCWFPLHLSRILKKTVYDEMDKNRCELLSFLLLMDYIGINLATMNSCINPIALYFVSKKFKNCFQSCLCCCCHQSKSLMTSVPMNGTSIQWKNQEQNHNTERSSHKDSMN

[1] = target: Endothelin-1 receptor (Rattus norvegicus); assay: pA2 value towards endothelin receptor A was determined as functional ETA antagonism

| Structure (SMILES) | IC50 (Endothelin-1 receptor) | Kb [1] |
| --- | --- | --- |
| COc1ccc(-c2c(C(=O)O)c(=O)n(Cc3ccc4nsnc4c3)c3c2oc2ccccc23)cc1 | 390 nM |  |
| CCCOc1ccc2c(c1)c(-c1ccc3c(c1)OCO3)c(C(=O)O)n2Cc1ccc2nonc2c1 | 2500 nM |  |
| CN(C)c1cccc2c(S(=O)(=O)Nc3ccc4c(c3)OCO4)cccc12 | 370 nM |  |
| COc1ccc(C(=O)/C(Cc2cc(OC)c(OC)c(OC)c2)=C(\C(=O)O)c2ccc3nsnc3c2)cc1 |  | 3.16 nM |
| CCCOc1ccc2c(c1)c(-c1ccc3c(c1)OCO3)c(C(=O)O)n2Cc1ccc2nsnc2c1 | 97 nM |  |
| COc1ccc(-c2c(C(=O)O)c(=O)n(Cc3ccc4c(c3)OCO4)c3c2oc2ccccc23)cc1 | 1300 nM |  |
| COc1cc2c(-c3ccc4c(c3)OCO4)c(C(=O)O)n(Cc3ccc4c(c3)OCO4)c2cc1OC | 150 nM |  |
| COc1ccc(C2(O)OC(=O)C(c3ccc4nsnc4c3)=C2Cc2cc(OC)c(OC)c(OC)c2)cc1 (stereo not drawn) | 0.3 nM |  |
| COc1cc2c(-c3ccc4c(c3)OCO4)c(C(=O)O)n(Cc3ccc4nsnc4c3)c2cc1OC | 33 nM |  |
| CCCOc1ccc2c(c1)c(-c1ccc3c(c1)OCO3)c(C(=O)O)n2Cc1ccc2c(c1)OCO2 | 250 nM |  |
| CCCOc1ccc2c(c1)c(-c1ccc(OC)cc1)c(C(=O)O)n2Cc1ccc2nsnc2c1 | 210 nM |  |
| CCCOc1ccc2c(c1)c(-c1ccc(OC)cc1)c(C(=O)O)n2Cc1cc2nsnc2cc1C | 160 nM |  |
| COc1ccc(C(=O)/C(Cc2cc(OC)c(OC)c(OC)c2)=C(\C(=O)O)c2ccc3c(c2)OCO3)cc1 [PD-156707 SODIUM] |  | 25.1 nM |
